Source: patent publication US7884136B2, “Modified-release formulations of a bupropion salt” (Biovail Laboratories International S.R.L., priority 2005, dated 2011)

Columns and labels:
[1] = Accelerated stability study of bupropion HBr, closed bottles, 40° C./75% RH, 3 and 6 months, HPLC; type: physicochemical; conditions: Batch D00896, 40° C., R.H. 75%; for Chromatographic purity B) (HPLC) 4) 2-N-(tert-Butyl)-aminopropiophenone / Chromatographic purity B) (HPLC) 5) single unknown impurity (each): LOQ 0.02%, LOD 0.002%; for Chromatographic purity A) (HPLC) 1) 3′-Chloropropiophenone / Chromatographic purity A) (HPLC) 3) 3′-Chlorobenzoic acid / Chromatographic purity A) (HPLC) 2) 3′-Chloro-2-bromopropiophenone: LOQ 0.05%; for Chromatographic purity A) (HPLC) 1) 3′-Chloropropiophenone / Chromatographic purity A) (HPLC) 3) 3′-Chlorobenzoic acid: LOD 0.01%; for Chromatographic purity A) (HPLC) 2) 3′-Chloro-2-bromopropiophenone: LOD 0.04%
Description: The samples were prepared in closed bottles and placed in the stability chamber. HPLC analysis was conducted on the samples prior to placing them in the stability chamber (time 0), and after 3 months and 6 months. The amounts of the main degradation products present at time 0 were compared with those amounts present after 3 months and 6 months. […] For each sample tested, at each time period, two different HPLC assays were run. The first assay labelled chromatographic purity A, measured the percentage of three impurities 3′chloropropiophenone, 3′-Chloro-2-bromopropiophenone and 3′-Chlorobenzoic acid. The second assay, labelled chromatographic purity B, measured the percentage of 2-N-(tert-Butyl)-aminopropiophenone, a single unknown impurity and the total unknown impurities.

[2] = Shelf life stability program of bupropion HBr, 25° C./60% RH, 3 and 6 months, HPLC; type: physicochemical; conditions: Batch D00894, 25° C., R.H. 60%; for Chromatographic purity B) (HPLC) 4) 2-N-(tert-Butyl)-aminopropiophenone / Chromatographic purity B) (HPLC) 5) single unknown impurity (each): LOQ 0.02%, LOD 0.002%; for Chromatographic purity A) (HPLC) 1) 3′-Chloropropiophenone / Chromatographic purity A) (HPLC) 3) 3′-Chlorobenzoic acid / Chromatographic purity A) (HPLC) 2) 3′-Chloro-2-bromopropiophenone: LOQ 0.05%; for Chromatographic purity A) (HPLC) 1) 3′-Chloropropiophenone / Chromatographic purity A) (HPLC) 3) 3′-Chlorobenzoic acid: LOD 0.01%; for Chromatographic purity A) (HPLC) 2) 3′-Chloro-2-bromopropiophenone: LOD 0.04%
Description: The stability of bupropion HBr was studied over a longer term under conditions meant to approximate standard storage or shelf conditions. Samples were prepared in closed containers and subjected to long-term storage at 25° C.+2° C. and 60%+5% RH in a stability chamber. The samples were analyzed by HPLC prior to being placed in the stability chamber (time 0) and after 3 months and 6 months. The amounts of the main degradation products present at time 0 were compared with the amounts present at 3 months and 6 months. As shown in Table 77-79 three different batches of bupropion HBr were tested. As in Example 10 each sample was tested under two HPLC assay conditions to identify 6 impurities or groups of impurities as described in Example 10.

## Br.CC(NC(C)(C)C)C(=O)c1cccc(Cl)c1 (stereo not drawn) [Bupropion•HBr]
[1]; 3 month
  Assay (HPLC): 100.0 % on d.b.
  Chromatographic purity (HPLC: A + B) Total impurities: 0.1%
  Chromatographic purity B) (HPLC) 6) total unknown impurities: 6) 0.05%
  Description (white or almost white crystalline powder): conform
  Identification IR, HPLC: positive
  Water content (K.F.): 0.11%
  Chromatographic purity B) (HPLC) 4) 2-N-(tert-Butyl)-aminopropiophenone: 4) 0.03%
  Chromatographic purity B) (HPLC) 5) single unknown impurity (each): 5) 0.04%
  Chromatographic purity A) (HPLC) 1) 3′-Chloropropiophenone: 1) n.q.
  Chromatographic purity A) (HPLC) 3) 3′-Chlorobenzoic acid: 3) n.q.
  Chromatographic purity A) (HPLC) 2) 3′-Chloro-2-bromopropiophenone: 2) n.d.
[1]; 6 months
  Assay (HPLC): 100.4 % on d.b.
  Chromatographic purity (HPLC: A + B) Total impurities: 0.1%
  Chromatographic purity B) (HPLC) 6) total unknown impurities: 6) n.q.
  Description (white or almost white crystalline powder): conform
  Identification IR, HPLC: positive
  Water content (K.F.): 0.04%
  Chromatographic purity B) (HPLC) 4) 2-N-(tert-Butyl)-aminopropiophenone: 4) 0.04%
  Chromatographic purity B) (HPLC) 5) single unknown impurity (each): 5) n.q.
  Chromatographic purity A) (HPLC) 1) 3′-Chloropropiophenone: 1) 0.05%
  Chromatographic purity A) (HPLC) 3) 3′-Chlorobenzoic acid: 3) n.q.
  Chromatographic purity A) (HPLC) 2) 3′-Chloro-2-bromopropiophenone: 2) n.d.
[1]; Time 0
  Assay (HPLC): 99.3 % on d.b.
  Chromatographic purity (HPLC: A + B) Total impurities: 0.1%
  Chromatographic purity B) (HPLC) 6) total unknown impurities: 6) 0.05%
  Description (white or almost white crystalline powder): conform
  Identification IR, HPLC: positive
  Water content (K.F.): 0.06%
  Chromatographic purity B) (HPLC) 4) 2-N-(tert-Butyl)-aminopropiophenone: 4) 0.04%
  Chromatographic purity B) (HPLC) 5) single unknown impurity (each): 5) 0.05%
  Chromatographic purity A) (HPLC) 1) 3′-Chloropropiophenone: 1) n.d.
  Chromatographic purity A) (HPLC) 3) 3′-Chlorobenzoic acid: 3) n.q.
  Chromatographic purity A) (HPLC) 2) 3′-Chloro-2-bromopropiophenone: 2) n.d.
[2]; 3 months
  Assay (HPLC): 99.4 % on d.b.
  Chromatographic purity (HPLC: A + B) Total impurities: 0.1%
  Chromatographic purity B) (HPLC) 6) total unknown impurities: 6) 0.05%
  Description (white or almost white crystalline powder): conform
  Identification IR, HPLC: positive
  Water content (K.F.): 0.05%
  Chromatographic purity B) (HPLC) 4) 2-N-(tert-Butyl)-aminopropiophenone: 4) 0.03%
  Chromatographic purity B) (HPLC) 5) single unknown impurity (each): 5) 0.04%
  Chromatographic purity A) (HPLC) 1) 3′-Chloropropiophenone: 1) n.q.
  Chromatographic purity A) (HPLC) 3) 3′-Chlorobenzoic acid: 3) n.q.
  Chromatographic purity A) (HPLC) 2) 3′-Chloro-2-bromopropiophenone: 2) n.d.
[2]; 6 months
  Assay (HPLC): 100.2 % on d.b.
  Chromatographic purity (HPLC: A + B) Total impurities: 0.1%
  Chromatographic purity B) (HPLC) 6) total unknown impurities: 6) 0.02%
  Description (white or almost white crystalline powder): conform
  Identification IR, HPLC: positive
  Water content (K.F.): 0.06%
  Chromatographic purity B) (HPLC) 4) 2-N-(tert-Butyl)-aminopropiophenone: 4) 0.05%
  Chromatographic purity B) (HPLC) 5) single unknown impurity (each): 5) n.q.
  Chromatographic purity A) (HPLC) 1) 3′-Chloropropiophenone: 1) 0.05%
  Chromatographic purity A) (HPLC) 3) 3′-Chlorobenzoic acid: 3) n.q.
  Chromatographic purity A) (HPLC) 2) 3′-Chloro-2-bromopropiophenone: 2) n.d.
[2]; 9 months
  Assay (HPLC): 99.5 % on d.b.
  Chromatographic purity (HPLC: A + B) Total impurities: n.q.
  Chromatographic purity B) (HPLC) 6) total unknown impurities: 6) n.q.
  Description (white or almost white crystalline powder): conform
  Identification IR, HPLC: positive
  Water content (K.F.): 0.05%
  Chromatographic purity B) (HPLC) 4) 2-N-(tert-Butyl)-aminopropiophenone: 4) n.d.
  Chromatographic purity B) (HPLC) 5) single unknown impurity (each): 5) n.q.
  Chromatographic purity A) (HPLC) 1) 3′-Chloropropiophenone: 1) n.q.
  Chromatographic purity A) (HPLC) 3) 3′-Chlorobenzoic acid: 3) n.q.
  Chromatographic purity A) (HPLC) 2) 3′-Chloro-2-bromopropiophenone: 2) n.d.
